Values quoted from earlier work in EP1964566A1, “PREPARATION WITH IMPROVED BIOABSORBABILITY OF SAPROPTERIN HYDROCHLORIDE” (Asubio Pharma Co., Ltd., priority 2005, dated 2007).

Conditions: in vivo, po

sapropterin hydrochloride
bioavailability: 1-2%
